How the values were obtained:
Panc430 = assay: MTT growth inhibition, pancreatic cell line Panc430; assay type: cell-based; details: MTT assay, 96 h treatment; average of three independent experiments
Method: (§1) Eight of these analogs 6d, 6h, 6n, 6g, 7b, 7d, 8g, and 8h were tested for their cytotoxicity in seven pancreatic cell lines ASPC1, Panc1, Panc203, Panc430, Pane 1005, MiaPaca2, and HS766T using MTT assay. Cells were trypsinized, seeded at 5×10^3 cells/well in 96-well plate and allowed to grow for 24 hours before the treatment with exponential increasing concentrations of drugs in the presence of 10% FBS. After a 96-hours period of treatment, 20 μl of MTT solution (5 mg/ml in PBS) were added to each well, and the plates were then incubated for 3 hours at 37° C. Medium was then replaced with 100 μl of DMSO per well. Plates were shaken and the optical density was measured at 570 nm using a multiwell plate reader (Bio-Rad, Model 550, Bio-Rad Inc., Hercules, Calif.). Each experiment was performed in triplicate for each drug concentration and was carried out independently at least 3 times. The IC50 value was defined as the concentration needed for a 50% reduction in the absorbance calculated based on the survival curves. Response to drug treatment was assessed by standardizing treatment groups to untreated controls. Compounds activity was compared with compound 1.
(§2) Table 2 (Growth Inhibition of Pancreatic Cancer Cell Lines by BPU and BPTU Analogues (IC50) a) compares the cytotoxicity of a series of new derivatives against a panel of seven pancreatic cancer cell lines, as determined by MTT assay. See, Mosmann, T., J. Immunol. Methods 65:55-63 (1983).

Panc1005 = assay: MTT growth inhibition, pancreatic cell line Panc1005; assay type: cell-based; details: MTT assay, 96 h treatment, average of three independent experiments
Method: as §1, §2

ASPC1 = assay: MTT growth inhibition, pancreatic cell line ASPC1; assay type: cell-based; details: MTT assay, 96 h treatment, average of three independent experiments
Method: as §1, §2

Panc203 = assay: MTT growth inhibition, pancreatic cell line Panc203; assay type: cell-based; details: MTT assay, 96 h treatment, average of three independent experiments
Method: as §1, §2

Miapaca2 = assay: MTT growth inhibition, pancreatic cell line Miapaca2; assay type: cell-based; details: MTT assay, 96 h treatment, average of three independent experiments
Method: as §1, §2

Panc1 = assay: MTT growth inhibition, pancreatic cell line Panc1; assay type: cell-based; details: MTT assay, 96 h treatment, average of three independent experiments
Method: as §1, §2

HS766 = assay: MTT growth inhibition, pancreatic cell line HS766; assay type: cell-based; details: MTT assay, 96 h treatment, average of three independent experiments
Method: as §1, §2

[1] = tested on: pancreas cancer xenografts; assay: In vivo growth inhibition of patient-derived pancreas cancer xenografts; parameters: species or system athymic nude mice
Method: Six-week-old female athymic nude mice (Harlan) were used. The research protocol was approved by the Johns Hopkins University Animal Care and Use Committee, and animals were maintained in accordance to guidelines of the American Association of Laboratory Animal Care. Surgical non-diagnostic specimens from patients who had undergone surgery at the Johns Hopkins Hospital were implanted s.c. in one to two mice for each patient, with two small pieces per mouse (F1 generation). Tumors were grown to 1.5 cm^3 and then harvested, divided into small ˜3×3×3 mm pieces, and transplanted to another five mice, with two tumors per mouse (F2 generation). After a second growth passage, tumors were excised and propagated to cohorts of ≧20 mice. These groups constituted the F3, or treatment cohort. Tumors from this third mouse-to-mouse passage were allowed to grow to ˜200 mm3, at which time mice were randomized into three treatment groups, with five to six mice (10 evaluable tumors) in each group: control (vehicle), 6n (50 mg/kg i.p. twice per week), and 7d (50 mg/kg i.p. twice per week). Docetaxel treatment was given to selected groups at a dose of 30 mg/kg i.p. once a week for 2 weeks. Mice were monitored daily for signs of toxicity and were weighed thrice per week. Tumor size was evaluated twice per week by caliper measurements using the following formula: tumor volume=[length×width^2]/2. Relative tumor growth inhibition was calculated by relative tumor growth of treated mice divided by relative tumor growth of control mice from the onset of therapy (T/C).
To assess the treatment effect, a hierarchical linear regression model was used with random intercepts and fixed slopes. Based on the results of exploratory plots, the assumption of fixed effects for slopes seemed reasonable. This model allowed for mouse effects to be nested within patient effects so that the hierarchical structure is fully accounted for. Specifically, the following linear regression model was fitted: log(γiJt)=a1ijtimeijt+b2jtimeijt×trtij+βtime^2ijt+eijt where j indexes patient, i indexes mouse, and t indexes time; yijt is the percentage change in tumor volume (compared with day 0) in mouse i, which is a xenograft for patient j at time t; and trtij is treatment (1=treated, 0=control) received by mouse i, which is a xenograft for patient j. […] An intercept and main effect of treatment were not included in the model that makes two assumptions: (a) at time 0, the change from baseline is 0 (which is empirically true), and (b) at baseline, the treated and untreated curves intersect. The model was fit using Win-Bugs software that estimates models using a Markov chain Monte Carlo estimation procedure. A burn-in of 10,000 iterations was done, and then the chain was run for an additional 20,000 iterations, of which every 10th iteration was saved for inference. Several chains were run with different starting values to ensure convergence. No convergence issues arose. The fitted model was used to make inferences with respect to the treatment effect and to create fitted regression lines (rescaled on the Y-axis for clearer interpretation). Point estimates of variables of interest (e.g., expected difference in tumor volume between treated and control at 28 days) and 95% credible intervals were based on the mean of posterior distributions and the 2.5th and 97.5th quantiles of the posterior distribution, respectively. The comparisons between means and proportions obtained from the biological studies were done using Student's t-test and χ^2 method, respectively. ANOVA was used when three or more variables were compared.
Tumors from nine cases of pancreatic cancer were used to establish xenografts in nude mice, and the animals were treated with either vehicle, 6n, or 7d (FIG. 36A). The level of efficacy varied both between drugs and within cases treated with each drug. FIG. 37 provides an integrated summary of all data points obtained in the studies. […]

LnCaP = assay: MTT growth inhibition, prostate cancer cell line LnCaP; assay type: cell-based, human; details: MTT assay; average of three independent experiments
Method: (§3) This MTT assay was carried using human prostate cancer cell lines CWR22R, LAPC-4 and LnCap using Promega cell titer 96 nonradioactive cell proliferation kits. Cells were trypsinized and centrifuged at 1000 rpm for 5 minutes and the supernatant was aspirated. Cells were resuspended with HBSS to a concentration of 10^6/ml. Cell suspension was diluted in serum containing medium to plate 2000 cells/well/0.2 ml. Cell suspension was transferred to sterile solution basin. Cells were plated using multichannel pipette set at 200 μl and incubated overnight for attachment. One plate was prepared for day 0 MTT assay as follows: 100 μl of media was removed from each well using multichannel pipette and 15 μl of MTT reagent was added. Plates were incubated at 37° C. for 4 hrs. […] of STOP solution was added to each well and incubated at room temperature for 1 hour. Absorbance was measured at 570 and 650 nm on plate reader. All the media from the remaining plates were carefully removed and the cells were treated with the media containing drug. MTT assays were done on days 0, 3, 5 and 7. In the preliminary screening […] BPU sulfur analogs 6l, 6h, 6n, 7d and 8h were screened and their activity was compared with compound 1.
(§4) Compounds with significant inhibitory activity in pancreatic cancer cells were further evaluated against prostate cancer cell lines in the MTT assay, (Mosmann, T., J. Immunol. Methods 65:55-63 (1983)) and the results were compared to those for compound 1 (Table 3).

LAPC-4 = assay: MTT growth inhibition, prostate cancer cell line LAPC-4; assay type: cell-based, human; details: MTT assay; average of three independent experiments
Method: as §3, §4

CWR22R = assay: MTT growth inhibition, prostate cancer cell line CWR22R; assay type: cell-based, human; details: MTT assay; average of three independent experiments
MCF-7 cells = assay: Apoptosis of MCF-7 cells; assay type: cell-based; details: 48 hours
tubulin = assay: Inhibition of tubulin polymerization; assay type: biochemical; details: Tubulin was at 10 μM; read-out: tubulin IC50 ± SD (inhibition of tubulin polymerization)
Method: Briefly, tubulin polymerization was followed turbidimetrically at 350 nm in Beckman model DU7400 and DU7500 recording spectrophotometers equipped with electronic temperature controllers. […] Samples were pre-incubated for 15 min at 30° C. and chilled on ice. GTP (final concentration, 0.4 mmol/L) was added to each reaction mixture, and these were placed in cuvettes held at 0° C. Baselines were established, the temperature was raised to 30° C.

[2] = tested on: seven pancreatic cell lines; assay: MTT cytotoxicity, panel of seven pancreatic cancer cell lines; assay type: cell-based; details: Pancreatic cancer cell, all seven pancreatic cell lines
Method: as §1, §2

`Brc1cnc(Sc2ccc(N=CON=COc3ccccc3)cc2)nc1` [Compound 6g] showed an IC50 (Panc430) of 2 µM, an IC50 (Panc1005; Homo sapiens, Panc1005) greater than 10 µM and an IC50 (ASPC1; Homo sapiens, ASPC1) greater than 10 µM. It also gave an IC50 (Panc203; Homo sapiens, Panc203) of 7.5 µM, an IC50 (Miapaca2; Homo sapiens, MIA PaCa-2) of 5 µM and an IC50 (Panc1; Homo sapiens, PANC-1) greater than 10 µM. It also gave an IC50 (HS766; Homo sapiens, Hs 766) of 5.5 µM.

With `CC(=O)O[C@@]12CO[C@@H]1C[C@H](O)[C@@]1(C)C(=O)[C@H](O)C3=C(C)[C@@H](OC(=O)[C@H](O)[C@@H](NC(=O)OC(C)(C)C)c4ccccc4)C[C@@](O)([C@@H](OC(=O)c4ccccc4)[C@H]21)C3(C)C` [Docetaxel, docetaxel, reference compound] the “efficacy in case 194” value ([1]; case with the greatest expression of MAPT) was “inactive”, the “efficacy in case 185” value ([1]; docetaxel 30 mg/kg i.p. once a week for 2 weeks) was “lower efficacy than 6n” and the “efficacy in case 215” value ([1]; low MAPT-expressing case, docetaxel 30 mg/kg i.p. once a week for 2 weeks) was “particularly efficacious”.

Compound `Cc1cc(NC(=O)NC(=O)c2ccccc2N(C)C)ccc1Oc1ncc(Br)cn1` [Compound 1, reference compound] has an IC50 (Panc430) of 0.8 µM, an IC50 (LnCaP) of 0.5 µM and an IC50 (LAPC-4) of 0.25 µM. The IC50 (Panc1005) was 5 µM, the IC50 (CWR22R) was 1 µM and the rate of apoptosis (MCF-7 cells; 10 nM) was 16.1%. It also gave a rate of apoptosis (MCF-7 cells; 30 nM) of 19.5%, a rate of apoptosis (MCF-7 cells; 100 nM) of 27.7% and an IC50 (ASPC1) of 0.85 µM. For the same compound, the IC50 (Panc203) was 0.95 µM, the IC50 (Miapaca2) was 0.85 µM and the IC50 (Panc1) was 0.7 µM. For the same compound, the IC50 (HS766) was 1 µM.

`Nc1ccccc1C(=O)NC(=O)Nc1ccc(Oc2nccc(Br)n2)cc1` [Compound 7c] showed an IC50 (Panc430) greater than 10 µM, an IC50 (LnCaP) of 0.75 µM and an IC50 (LAPC-4) of 0.75 µM. It also gave an IC50 (Panc1005) greater than 10 µM, an IC50 (CWR22R) of 2 µM and an IC50 (ASPC1) of 5.2 µM. The IC50 (Panc203) was greater than 10 µM, the IC50 (Miapaca2) was 0.92 µM and the IC50 (tubulin) was 36 ± 0.7 µM. For the same compound, the IC50 (Panc1) was 3.5 µM and the IC50 (HS766) was 0.27 µM.

`Nc1ccccc1OC=NOC=Nc1ccc(Sc2ncccn2)cc1` [Compound 7b] showed an IC50 (Panc430) of 6.5 µM, an IC50 (Panc1005; Homo sapiens, Panc1005) greater than 10 µM and an IC50 (ASPC1; Homo sapiens, ASPC1) of 6 µM. The IC50 (Panc203; Homo sapiens, Panc203) was 5.5 µM, the IC50 (Miapaca2; Homo sapiens, MIA PaCa-2) was 7 µM and the IC50 (Panc1; Homo sapiens, PANC-1) was 7.5 µM. It also gave an IC50 (HS766; Homo sapiens, Hs 766) of 8 µM.

For `O=[N+]([O-])c1ccccc1OC=NOC=Nc1ccc([S+]([O-])c2ncc(Br)cn2)cc1` (stereo not shown) [Compound 8g], the IC50 (Panc430) was 5.5 µM, the IC50 (Panc1005; Homo sapiens, Panc1005) was 5.5 µM and the IC50 (ASPC1; Homo sapiens, ASPC1) was 2.5 µM. For the same compound, the IC50 (Panc203; Homo sapiens, Panc203) was 5.5 µM, the IC50 (Miapaca2; Homo sapiens, MIA PaCa-2) was 8 µM and the IC50 [2] was 2.5 to 8 µM. For the same compound, the IC50 (Panc1; Homo sapiens, PANC-1) was 6.5 µM and the IC50 (HS766; Homo sapiens, Hs 766) was 6.5 µM.

Source: US20090099218A1, “SYNTHESIS OF NOVEL TUBULIN POLYMERIZATION INHIBITORS: BENZOYLPHENYLUREA (BPU) SULFUR ANALOGS” (priority 2007, published 2009)
